This is an account of results in ChEMBL document CHEMBL1240440, “A bioactive labdane diterpenoid from Curcuma amada and its semisynthetic analogues as antitubercular agents” (2010).

Converted amounts (≈) assume the structure as drawn.

The test system of the experiment is Mycobacterium tuberculosis. Kind of experiment: Antitubercular activity against Mycobacterium tuberculosis H37Rv ATCC 27294 after 24 hrs by BACTEC radiometric susceptibility assay. Type of experiment: functional. The note with it: H37Rv ATCC 27294, 24 h.
As for `C=C1CC[C@H]2C(C)(C)CCC[C@]2(C)[C@H]1C/C=C(/CO)CCO`, 250 µg/mL (≈ 816 µM) was the least that counted as inhibitory (MIC).

`C=C1CC[C@H]2C(C)(C)CCC[C@]2(C)[C@H]1C/C=C(/C=N/O)C/C=N/O`: the MIC (as a rule, the lowest concentration found to suppress growth) amounted to 500 µg/mL (≈ 1500 µM).

`C=C1CC[C@H]2C(C)(C)CCC[C@]2(C)[C@H]1C/C=C(\CCOC(C)=O)COC(C)=O` displayed an MIC greater than 1000 µg/mL.

`CO[C@H]1/C=C/O[C@@]2(C)Oc3c(C)c(O)c4c(O)c(c(/C=N/N5CCN(C)CC5)c(O)c4c3C2=O)NC(=O)/C(C)=C\C=C\[C@H](C)[C@H](O)[C@@H](C)[C@@H](O)[C@@H](C)[C@H](OC(C)=O)[C@@H]1C` [RIFAMPIN] registered an MIC of 2 µg/mL (≈ 2.43 µM).

With `C=C1CC[C@H]2C(C)(C)CCC[C@]2(C)[C@H]1C/C=C(/C=O)CC=O`, 500 µg/mL (≈ 1650 µM) was the least that counted as inhibitory (MIC).

Consider `CN[C@@H]1[C@H](O[C@H]2[C@H](O[C@H]3[C@H](O)[C@@H](O)[C@H](N=C(N)N)[C@@H](O)[C@@H]3N=C(N)N)O[C@@H](C)[C@]2(O)C=O)O[C@@H](CO)[C@H](O)[C@H]1O` [STREPTOMYCIN], for which the MIC was determined as 2 µg/mL (≈ 3.44 µM).
